From patent US20190062305A1, “PYRIDYL OR PYRAZINYL COMPOUNDS CARRYING A METHYL-BOUND ALPHA-AMINO ACID AMIDE GROUP” (ABBVIE DEUTSCHLAND GMBH & CO. KG, priority 2015, published 2019)
Where a name gives a salt, the structure may show the parent alone.

Assays:
[1] = target: T1, 5-HT2C receptor (Homo sapiens, UniProt P28335); experiment: Human 5-HT2C functional assay (beta-arrestin2 recruitment, U2OS_HTR2C_β-Arrestin cells); assay type: cell-based; details: for EC50: beta-arrestin2 recruitment, U2OS_HTR2C_β-Arrestin cells, 1.5 h incubation, read-out: EC50 5-HT2C (potency in functional assay)
T1 construct: host or cells: U2OS
T1 sequence (P28335 33-458): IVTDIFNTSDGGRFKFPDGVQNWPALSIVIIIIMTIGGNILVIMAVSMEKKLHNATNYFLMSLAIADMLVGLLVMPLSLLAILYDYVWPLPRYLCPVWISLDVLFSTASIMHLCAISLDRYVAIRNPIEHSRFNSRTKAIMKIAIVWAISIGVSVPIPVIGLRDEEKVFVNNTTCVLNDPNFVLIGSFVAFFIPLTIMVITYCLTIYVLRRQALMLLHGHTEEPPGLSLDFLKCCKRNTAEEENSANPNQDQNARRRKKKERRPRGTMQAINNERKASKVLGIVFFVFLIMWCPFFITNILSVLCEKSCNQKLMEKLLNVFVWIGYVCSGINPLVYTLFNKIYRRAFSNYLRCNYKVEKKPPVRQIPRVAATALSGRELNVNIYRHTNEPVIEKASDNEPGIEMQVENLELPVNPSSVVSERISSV
T1 sequence (P32121 whole entry partner): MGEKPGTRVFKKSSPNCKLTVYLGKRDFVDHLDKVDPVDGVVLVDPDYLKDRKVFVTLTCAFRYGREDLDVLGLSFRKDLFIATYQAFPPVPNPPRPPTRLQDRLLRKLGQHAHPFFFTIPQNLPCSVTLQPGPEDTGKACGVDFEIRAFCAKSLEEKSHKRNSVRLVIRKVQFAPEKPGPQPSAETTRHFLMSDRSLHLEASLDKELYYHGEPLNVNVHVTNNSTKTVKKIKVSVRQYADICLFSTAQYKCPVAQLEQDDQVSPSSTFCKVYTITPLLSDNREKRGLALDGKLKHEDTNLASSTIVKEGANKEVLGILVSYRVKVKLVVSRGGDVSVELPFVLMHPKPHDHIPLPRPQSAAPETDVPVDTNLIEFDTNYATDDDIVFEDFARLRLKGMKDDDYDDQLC
Description: The functional activity of compounds of formula I was assayed by incubation with U2OS_HTR2C_β-Arrestin cells (DiscoverX, 93-0289C3) to induce beta-arrestin2 recruitment to the 5-HT2C receptor. The agonist-induced recruitment and proximity of the receptor and beta-arrestin2 leads to complementation and formation of active β-galactosidase. The enzyme complementation results in enzyme activity, which is measured following the termination of the agonist incubation using DiscoveRx's detection reagent, which contains a chemiluminescent substrate which produces a high intensity signal. Cells were plated and a medium-change to a 1% serum containing medium was performed 24h later. The next day, test compounds were added and incubated for 1.5 h before addition of detection reagent.
The response produced was measured and compared with the response produced by 10 [mu]M 5-HT or the maximal effect induced by 5-HT (defined as 100%) to which it was expressed as a percentage response (relative efficacy). Dose response curves were constructed using Graphpad Prism (Graph Software Inc.) or using in house adapted software using a 4 parameter dose response model with variable slope (fit=(Bottom+(Top-Bottom)/(1+10^∧((Log EC50−x)*HillSlope))res=(y-fit)). Results are compiled in the table below.

[2] = Metabolic stability in human liver microsomes, unbound intrinsic clearance (Cl int/fu mic); assay type: in vitro ADME; details: 0.5 μM compound, NADPH; for CLint scaled at 0.5 μM: human, liver microsomes, pH 7.4, human liver microsomes 0.25 mg/mL, read-out: Cl int, mic unb. (h) [l/h/kg] (unbound intrinsic clearance, human)
Description: Samples of the tested compounds (0.5 μM) were preincubated together with human liver microsomes (0.25 mg of microsomal protein/mL) in 0.05 M potassium phosphate buffer of pH 7.4 in microtiter plates at 37° C. for 5 minutes. The reaction was started by adding NADPH (1.0 mM). After 0, 5, 10, 15, 20 and 30 minutes, an aliquot was removed, the reaction was cooled and stopped by adding twice the amount of quench solution consisting of acetonitrile/methanol 1:1, and containing 0.2 μM carbutamide as internal standard. The samples were frozen until analyzed. The remaining concentration of undegraded test substance was determined by liquid chromatography-tandem mass spectrometry (LC-MS/MS). The half-life (t1/2) was determined from the gradient of the ratio of the signal of (test substance/internal standard)/unit time plot, allowing the calculation of the half-life of the test substance, assuming first order kinetics, from the decrease in the concentration of the compound with time. The microsomal clearance ([…]) was calculated as follows: […]=((ln(2)/t 1⁄2)/Microsomal Protein Concentration (mg/ml))*1000, leading to the unit of uL/min/mg. The scaled clearance (mClin_scaled) was calculated as […]_scaled=m CLint*(Microsomal Yield (mg/kg BW))/1000000*60, leading to the units L/h/kg. The Microsomal Yield is defined by the specifics of the used microsomes. Calculations were modified from references: Di, The Society for Biomolecular Screening, 2003, 453-462; Obach, D M D, 1999 vol 27. N 11, 1350-1359. A suspension of 0.25 mg/ml microsomal protein spiked with 0.5 μM of test compound was pipetted on one side of a HTDialysis device (HTDialysis LLC, 37 Ledgewood Drive, Gales Fery CT 06335) separated by a membrane with a MWcut off 12-14 K. 50 mM K-Phosphate buffer (pH 7.4) was added on the other side of the well. After incubation at 37° C. for 4 h while shaking at 150 rpm, aliquots of both sides were taken, quenched with MeOH/ACN 1:1 and 0.2 μM of internal standard and frozen until analysis by LCMSMS Cl int unbound=Cl int/fu mic

[3] = relative efficacy vs response to 10 μM 5-HT or maximal 5-HT effect (100%)

Row | Structure (SMILES) | EC50 [1] [nM] | Emax [1, 3] [%] | CLint scaled at 0.5 μM [2] [L/h/kg] | % efficacy [1, 3] | Cl int, mic unb. (h) [l/h/kg] (unbound intrinsic clearance, human) ([2]; human liver microsomes 0.25 mg/mL)
1 | COc1nc(NC2CCC(C(F)(F)F)CC2)c(F)cc1CN(C)C(=O)[C@@H]1CCCN1 (mixture of isomers) [Example 157, (2S)—N-[[5-fluoro-2-methoxy-6-[[4-(trifluoromethyl)cyclohexyl]amino]-3-pyridyl]methyl]-N-methyl-pyrrolidine-2-carboxamide; 2,2,2-trifluoroacetic Acid] | 200 to 1000 | 50 to 70 | 5 to 50 | – | –
2 | COc1nc(O[C@H]2CCC[C@@H](C(F)(F)F)C2)c(F)cc1CNC(=O)[C@@H]1CCCN1 (relative stereo) [Example 88, (2S)—N-[[5-Fluoro-2-methoxy-6-[(1S,3R)-3-(trifluoromethyl)cyclohexoxy]-3-pyridyl]methyl]pyrrolidine-2-carboxamide Hydrochloride] | < 20 | > 70 | 5 to 50 | – | –
3 | COc1nc(O[C@H]2CCC[C@H](C(F)(F)F)C2)c(F)cc1CNC(=O)[C@@H]1CCCN1 (relative stereo) [Example 89, (2S)—N-[[5-Fluoro-2-methoxy-6-[(1S,3S)-3-(trifluoromethyl)cyclohexoxy]-3-pyridyl]methyl]pyrrolidine-2-carboxamide Hydrochloride] | < 20 | > 70 | 5 to 50 | – | –
4 | COc1nc(OC2CCC(C(C)(F)F)CC2)c(F)cc1CNC(=O)[C@@H]1CCCN1 (single isomer, unassigned; isomer 1) [Example 73] | 200 to 1000 | > 70 | 5 to 50 | – | –
5 | COc1nc(OC2CCC(C(C)(F)F)CC2)c(F)cc1CNC(=O)[C@@H]1CCCN1 (single isomer, unassigned; isomer 2) [Example 74] | < 20 | – | – | +++ (>70%) | ++ (from 5 to <50 l/h/kg)
6 | COc1nc(OC2CCC(F)(F)CC2)c(F)cc1CNC(=O)[C@@H]1CCCN1 [Example 1, (2S)—N-[[6-(4,4-Difluorocyclohexoxy)-5-fluoro-2-methoxy-3-pyridyl]methyl]-pyrrolidine-2-carboxamide; Fumaric Acid] | < 20 | > 70 | < 5 | – | –
7 | COc1nc(OCc2ccccc2)c(F)cc1CNC(=O)[C@@H]1CCCN1 [Example 2, (2S)—N-[(6-Benzyloxy-5-fluoro-2-methoxy-3-pyridyl)methyl]pyrrolidine-2-carboxamide; 2,2,2-trifluoroacetic Acid] | < 20 | > 70 | < 5 | – | –
8 | COc1nc(OCC2CCCCC2)c(F)cc1CNC(=O)[C@@H]1CCCN1 [Example 3, (2S)—N-[[6-(Cyclohexylmethoxy)-5-fluoro-2-methoxy-3-pyridyl]methyl]pyrrolidine-2-carboxamide; 2,2,2-trifluoroacetic acid] | < 20 | > 70 | 5 to 50 | – | –
9 | COc1nc(OCC2CCC(F)(F)CC2)c(F)cc1CNC(=O)[C@@H]1CCCN1 [Example 4, (2S)—N-[[6-[(4,4-Difluorocyclohexyl)methoxy]-5-fluoro-2-methoxy-3-pyridyl]-methyl]pyrrolidine-2-carboxamide; Fumaric Acid] | < 20 | > 70 | 5 to 50 | – | –
10 | COc1nc(OCC2CCC(F)(F)C2)c(F)cc1CNC(=O)[C@@H]1CCCN1 (stereo partly drawn) [Example 6, (2S)—N-[[6-[(3,3-Difluorocyclopentyl)methoxy]-5-fluoro-2-methoxy-3-pyridyl]-methyl]pyrrolidine-2-carboxamide; Fumaric Acid] | < 20 | > 70 | < 5 | – | –
11 | COc1nc(OCC2CCC(F)(F)C2)c(F)cc1CNC(=O)[C@@H]1CCCN1C (stereo partly drawn) [Example 7, (2S)—N-[[6-[(3,3-Difluorocyclopentyl)methoxy]-5-fluoro-2-methoxy-3-pyridyl]-methyl]-1-methyl-pyrrolidine-2-carboxamide; Fumaric Acid] | < 20 | > 70 | < 5 | – | –
12 | COc1nc(O[C@H]2CC[C@H](C(F)(F)F)CC2)c(F)cc1CNC(=O)[C@@H]1CCCN1C [Example 8, (2S)—N-[[5-Fluoro-2-methoxy-6-[trans-4-(trifluoromethyl)cyclohexoxy]-3-pyridyl]methyl]-1-methyl-pyrrolidine-2-carboxamide; Fumaric Acid] | < 20 | > 70 | 5 to 50 | – | –
13 | COc1nc(OCC2CCC(F)(F)CC2)c(F)cc1CNC(=O)[C@@H]1CCCN1C [Example 9, (2S)—N-[[6-[(4,4-Difluorocyclohexyl)methoxy]-5-fluoro-2-methoxy-3-pyridyl]methyl]-1-methyl-pyrrolidine-2-carboxamide; Fumaric Acid] | < 20 | > 70 | 5 to 50 | – | –
14 | COc1nc(OC2CCC(F)(F)CC2)c(F)cc1CNC(=O)[C@@H]1CCCN1C [Example 10, (2S)—N-[[6-(4,4-Difluorocyclohexoxy)-5-fluoro-2-methoxy-3-pyridyl]methyl]-1-methyl-pyrrolidine-2-carboxamide; Fumaric Acid] | < 20 | > 70 | 5 to 50 | – | –
15 | COc1nc(O[C@H]2CC[C@H](C(F)(F)F)CC2)c(F)cc1CNC(=O)[C@@H]1CCCN1 [Example 11, (2S)—N-[[5-Fluoro-2-methoxy-6-[trans-4-(trifluoromethyl)cyclohexoxy]-3-pyridyl]methyl]pyrrolidine-2-carboxamide; Fumaric Acid] | < 20 | > 70 | 5 to 50 | – | –
16 | COc1nc(OC2CCC(OC)CC2)c(F)cc1CNC(=O)[C@@H]1CCCN1 (stereo partly drawn) [Example 12, (2S)—N-[[5-Fluoro-2-methoxy-6-(4-methoxycyclohexoxy)-3-pyridyl]methyl]-pyrrolidine-2-carboxamide; Fumaric Acid] | 20 to 200 | > 70 | < 5 | – | –
17 | COc1nc(OC2CCC(OC)CC2)c(F)cc1CNC(=O)[C@@H]1CCCN1C (stereo partly drawn) [Example 13, (2S)—N-[[5-Fluoro-2-methoxy-6-(4-methoxycyclohexoxy)-3-pyridyl]methyl]-1-methyl-pyrrolidine-2-carboxamide; Fumaric Acid] | 20 to 200 | > 70 | < 5 | – | –
18 | COc1nc(OCC2CCC(C(F)(F)F)CC2)c(F)cc1CNC(=O)[C@@H]1CCCN1 (stereo partly drawn) [Example 14, (2S)—N-[[5-Fluoro-2-methoxy-6-[[4-(trifluoromethyl)cyclohexyl]methoxy]-3-pyridyl]methyl]pyrrolidine-2-carboxamide; Fumaric Acid] | < 20 | > 70 | 50 to 500 | – | –
19 | COc1nc(OCC2CCC(C(F)(F)F)CC2)c(F)cc1CNC(=O)[C@@H]1CCCN1C (stereo partly drawn) [Example 15, (2S)—N-[[5-Fluoro-2-methoxy-6-[[4-(trifluoromethyl)cyclohexyl]methoxy]-3-pyridyl]methyl]-1-methyl-pyrrolidine-2-carboxamide] | < 20 | > 70 | 50 to 500 | – | –
20 | COc1nc(OC[C@H]2CCC(F)(F)C2)c(F)cc1CNC(=O)[C@@H]1CCCN1C [Example 17, (2S)—N-[[6-[[(1S)-3,3-Difluorocyclopentyl]methoxy]-5-fluoro-2-methoxy-3-pyridyl]methyl]-1-methyl-pyrrolidine-2-carboxamide; Fumaric Acid] | 20 to 200 | 50 to 70 | 5 to 50 | – | –
21 | COc1nc(OCC(F)(F)C(F)(F)F)c(F)cc1CNC(=O)[C@@H]1CCCN1 [Example 18, (2S)—N-[[5-Fluoro-2-methoxy-6-(2,2,3,3,3-pentafluoropropoxy)-3-pyridyl]methyl]-pyrrolidine-2-carboxamide; Succinic Acid] | < 20 | > 70 | < 5 | – | –
